Values quoted from earlier work as cited in patent US20110183005A1, “PROCESS FOR THE PREPARATION OF CO[…] OF STABILIZED HYPOBROMITES” (BROMINE COMPOUNDS LTD., priority 2002, published 2011).

Conditions: at 25° C.

In the case of `OBr` [Hypobromous acid], the pK is listed as 8.8.
